{
  "source": "paper PMC11921695",
  "about": "(BMC Cancer, 2025)",
  "system": "patients with HIV-associated KS",
  "data": [
    {"smiles": "Cn1cnc2c(F)c(Nc3ccc(Br)cc3Cl)c(C(=O)NOCCO)cc21", "note": "[selumetinib, 6-(4-Bromo-2-chloro-phenylamino)-7-fluro-3-methyl-3 H-benzoimidazole-5-carboxylic acid (2-hydroxy-ethoxy)-amide hydrogen sulphate]", "values": [
      {"measurement": "grade 3 ARs, all rash acneiform", "setting": "75 mg bd selumetinib", "result": "three"},
      {"measurement": "patients who experienced at least one adverse event (AE)", "setting": "16 treated patients", "result": 16},
      {"measurement": "ALT Increased: Number of AEs reported", "setting": "CTCAE Grade ≤2", "result": 13},
      {"measurement": "AST Increased: Number of AEs reported", "setting": "CTCAE Grade ≤2", "result": 11},
      {"measurement": "Albumin Decreased: Number of AEs reported", "setting": "CTCAE Grade ≤2", "result": 12},
      {"measurement": "CPK Increased: Number of AEs reported", "setting": "CTCAE Grade ≤2", "result": 14},
      {"measurement": "Fatigue: Number of AEs reported", "setting": "CTCAE Grade ≤2", "result": 10},
      {"measurement": "Nausea: Number of AEs reported", "setting": "CTCAE Grade ≤2", "result": 11},
      {"measurement": "Red Blood Cell Count Decreased: Number of AEs reported", "setting": "CTCAE Grade ≤2", "result": 22},
      {"measurement": "Vomiting: Number of AEs reported", "setting": "CTCAE Grade ≤2", "result": 11},
      {"measurement": "Blood and lymphatic system disorders: Adverse Events Grade 1 E", "setting": "E = events, any dose", "result": 5},
      {"measurement": "Blood and lymphatic system disorders: Adverse Events Grade 2 E", "setting": "E = events, any dose", "result": 1},
      {"measurement": "Blood and lymphatic system disorders: Adverse Events Grade3 E", "setting": "E = events, any dose", "result": 0},
      {"measurement": "Blood and lymphatic system disorders: Adverse Reactions Grade 1 E", "setting": "E = events, any dose", "result": 4},
      {"measurement": "Blood and lymphatic system disorders: Adverse Reactions Grade 2 E", "setting": "E = events, any dose", "result": 1},
      {"measurement": "Blood and lymphatic system disorders: Adverse Reactions Grade 3 E", "setting": "E = events, any dose", "result": 0},
      {"measurement": "Cardiac disorders: Adverse Events Grade 1 E", "setting": "E = events, any dose", "result": 1},
      {"measurement": "Cardiac disorders: Adverse Events Grade 2 E", "setting": "E = events, any dose", "result": 0},
      {"measurement": "Cardiac disorders: Adverse Events Grade3 E", "setting": "E = events, any dose", "result": 0},
      {"measurement": "Cardiac disorders: Adverse Reactions Grade 1 E", "setting": "E = events, any dose", "result": 0},
      {"measurement": "Cardiac disorders: Adverse Reactions Grade 2 E", "setting": "E = events, any dose", "result": 0},
      {"measurement": "Cardiac disorders: Adverse Reactions Grade 3 E", "setting": "E = events, any dose", "result": 0},
      {"measurement": "Eye disorders: Adverse Events Grade 1 E", "setting": "E = events, any dose", "result": 9},
      {"measurement": "Eye disorders: Adverse Events Grade 2 E", "setting": "E = events, any dose", "result": 3},
      {"measurement": "Eye disorders: Adverse Events Grade3 E", "setting": "E = events, any dose", "result": 0},
      {"measurement": "Eye disorders: Adverse Reactions Grade 1 E", "setting": "E = events, any dose", "result": 6},
      {"measurement": "Eye disorders: Adverse Reactions Grade 2 E", "setting": "E = events, any dose", "result": 3},
      {"measurement": "Eye disorders: Adverse Reactions Grade 3 E", "setting": "E = events, any dose", "result": 0},
      {"measurement": "Gastrointestinal disorders: Adverse Events Grade 1 E", "setting": "E = events, any dose", "result": 47},
      {"measurement": "Gastrointestinal disorders: Adverse Events Grade 2 E", "setting": "E = events, any dose", "result": 13},
      {"measurement": "Gastrointestinal disorders: Adverse Events Grade3 E", "setting": "E = events, any dose", "result": 0},
      {"measurement": "Gastrointestinal disorders: Adverse Reactions Grade 1 E", "setting": "E = events, any dose", "result": 44},
      {"measurement": "Gastrointestinal disorders: Adverse Reactions Grade 2 E", "setting": "E = events, any dose", "result": 9},
      {"measurement": "Gastrointestinal disorders: Adverse Reactions Grade 3 E", "setting": "E = events, any dose", "result": 0},
      {"measurement": "General disorders and administration site conditions: Adverse Events Grade 1 E", "setting": "E = events, any dose", "result": 33},
      {"measurement": "General disorders and administration site conditions: Adverse Events Grade 2 E", "setting": "E = events, any dose", "result": 5},
      {"measurement": "General disorders and administration site conditions: Adverse Events Grade3 E", "setting": "E = events, any dose", "result": 1},
      {"measurement": "General disorders and administration site conditions: Adverse Reactions Grade 1 E", "setting": "E = events, any dose", "result": 23},
      {"measurement": "General disorders and administration site conditions: Adverse Reactions Grade 2 E", "setting": "E = events, any dose", "result": 2},
      {"measurement": "General disorders and administration site conditions: Adverse Reactions Grade 3 E", "setting": "E = events, any dose", "result": 0},
      {"measurement": "Infections and infestations: Adverse Events Grade 1 E", "setting": "E = events, any dose", "result": 2},
      {"measurement": "Infections and infestations: Adverse Events Grade 2 E", "setting": "E = events, any dose", "result": 6},
      {"measurement": "Infections and infestations: Adverse Events Grade3 E", "setting": "E = events, any dose", "result": 0},
      {"measurement": "Infections and infestations: Adverse Reactions Grade 1 E", "setting": "E = events, any dose", "result": 1},
      {"measurement": "Infections and infestations: Adverse Reactions Grade 2 E", "setting": "E = events, any dose", "result": 4},
      {"measurement": "Infections and infestations: Adverse Reactions Grade 3 E", "setting": "E = events, any dose", "result": 0},
      {"measurement": "Injury, poisoning and procedural complications: Adverse Events Grade 1 E", "setting": "E = events, any dose", "result": 2},
      {"measurement": "Injury, poisoning and procedural complications: Adverse Events Grade 2 E", "setting": "E = events, any dose", "result": 3},
      {"measurement": "Injury, poisoning and procedural complications: Adverse Events Grade3 E", "setting": "E = events, any dose", "result": 0},
      {"measurement": "Injury, poisoning and procedural complications: Adverse Reactions Grade 1 E", "setting": "E = events, any dose", "result": 0},
      {"measurement": "Injury, poisoning and procedural complications: Adverse Reactions Grade 2 E", "setting": "E = events, any dose", "result": 0},
      {"measurement": "Injury, poisoning and procedural complications: Adverse Reactions Grade 3 E", "setting": "E = events, any dose", "result": 0},
      {"measurement": "Investigations: Adverse Events Grade 1 E", "setting": "E = events, any dose", "result": 133},
      {"measurement": "Investigations: Adverse Events Grade 2 E", "setting": "E = events, any dose", "result": 7},
      {"measurement": "Investigations: Adverse Events Grade3 E", "setting": "E = events, any dose", "result": 2},
      {"measurement": "Investigations: Adverse Reactions Grade 1 E", "setting": "E = events, any dose", "result": 81},
      {"measurement": "Investigations: Adverse Reactions Grade 2 E", "setting": "E = events, any dose", "result": 6},
      {"measurement": "Investigations: Adverse Reactions Grade 3 E", "setting": "E = events, any dose", "result": 0},
      {"measurement": "Metabolism and nutrition disorders: Adverse Events Grade 1 E", "setting": "E = events, any dose", "result": 13},
      {"measurement": "Metabolism and nutrition disorders: Adverse Events Grade 2 E", "setting": "E = events, any dose", "result": 0},
      {"measurement": "Metabolism and nutrition disorders: Adverse Events Grade3 E", "setting": "E = events, any dose", "result": 0},
      {"measurement": "Metabolism and nutrition disorders: Adverse Reactions Grade 1 E", "setting": "E = events, any dose", "result": 9},
      {"measurement": "Metabolism and nutrition disorders: Adverse Reactions Grade 2 E", "setting": "E = events, any dose", "result": 0},
      {"measurement": "Metabolism and nutrition disorders: Adverse Reactions Grade 3 E", "setting": "E = events, any dose", "result": 0},
      {"measurement": "Musculoskeletal and connective tissue disorders: Adverse Events Grade 1 E", "setting": "E = events, any dose", "result": 4},
      {"measurement": "Musculoskeletal and connective tissue disorders: Adverse Events Grade 2 E", "setting": "E = events, any dose", "result": 0},
      {"measurement": "Musculoskeletal and connective tissue disorders: Adverse Events Grade3 E", "setting": "E = events, any dose", "result": 0},
      {"measurement": "Musculoskeletal and connective tissue disorders: Adverse Reactions Grade 1 E", "setting": "E = events, any dose", "result": 2},
      {"measurement": "Musculoskeletal and connective tissue disorders: Adverse Reactions Grade 2 E", "setting": "E = events, any dose", "result": 0},
      {"measurement": "Musculoskeletal and connective tissue disorders: Adverse Reactions Grade 3 E", "setting": "E = events, any dose", "result": 0},
      {"measurement": "Nervous system disorders: Adverse Events Grade 1 E", "setting": "E = events, any dose", "result": 7},
      {"measurement": "Nervous system disorders: Adverse Events Grade 2 E", "setting": "E = events, any dose", "result": 0},
      {"measurement": "Nervous system disorders: Adverse Events Grade3 E", "setting": "E = events, any dose", "result": 0},
      {"measurement": "Nervous system disorders: Adverse Reactions Grade 1 E", "setting": "E = events, any dose", "result": 5},
      {"measurement": "Nervous system disorders: Adverse Reactions Grade 2 E", "setting": "E = events, any dose", "result": 0},
      {"measurement": "Nervous system disorders: Adverse Reactions Grade 3 E", "setting": "E = events, any dose", "result": 0},
      {"measurement": "Psychiatric disorders: Adverse Events Grade 1 E", "setting": "E = events, any dose", "result": 3},
      {"measurement": "Psychiatric disorders: Adverse Events Grade 2 E", "setting": "E = events, any dose", "result": 0},
      {"measurement": "Psychiatric disorders: Adverse Events Grade3 E", "setting": "E = events, any dose", "result": 0},
      {"measurement": "Psychiatric disorders: Adverse Reactions Grade 1 E", "setting": "E = events, any dose", "result": 3},
      {"measurement": "Psychiatric disorders: Adverse Reactions Grade 2 E", "setting": "E = events, any dose", "result": 0},
      {"measurement": "Psychiatric disorders: Adverse Reactions Grade 3 E", "setting": "E = events, any dose", "result": 0},
      {"measurement": "Renal and urinary disorders: Adverse Events Grade 1 E", "setting": "E = events, any dose", "result": 2},
      {"measurement": "Renal and urinary disorders: Adverse Events Grade 2 E", "setting": "E = events, any dose", "result": 0},
      {"measurement": "Renal and urinary disorders: Adverse Events Grade3 E", "setting": "E = events, any dose", "result": 0},
      {"measurement": "Renal and urinary disorders: Adverse Reactions Grade 1 E", "setting": "E = events, any dose", "result": 1},
      {"measurement": "Renal and urinary disorders: Adverse Reactions Grade 2 E", "setting": "E = events, any dose", "result": 0},
      {"measurement": "Renal and urinary disorders: Adverse Reactions Grade 3 E", "setting": "E = events, any dose", "result": 0},
      {"measurement": "Respiratory, thoracic and mediastinal disorders: Adverse Events Grade 1 E", "setting": "E = events, any dose", "result": 11},
      {"measurement": "Respiratory, thoracic and mediastinal disorders: Adverse Events Grade 2 E", "setting": "E = events, any dose", "result": 2},
      {"measurement": "Respiratory, thoracic and mediastinal disorders: Adverse Events Grade3 E", "setting": "E = events, any dose", "result": 0},
      {"measurement": "Respiratory, thoracic and mediastinal disorders: Adverse Reactions Grade 1 E", "setting": "E = events, any dose", "result": 5},
      {"measurement": "Respiratory, thoracic and mediastinal disorders: Adverse Reactions Grade 2 E", "setting": "E = events, any dose", "result": 1},
      {"measurement": "Respiratory, thoracic and mediastinal disorders: Adverse Reactions Grade 3 E", "setting": "E = events, any dose", "result": 0},
      {"measurement": "Skin and subcutaneous tissue disorders: Adverse Events Grade 1 E", "setting": "E = events, any dose", "result": 29},
      {"measurement": "Skin and subcutaneous tissue disorders: Adverse Events Grade 2 E", "setting": "E = events, any dose", "result": 17},
      {"measurement": "Skin and subcutaneous tissue disorders: Adverse Events Grade3 E", "setting": "E = events, any dose", "result": 3},
      {"measurement": "Skin and subcutaneous tissue disorders: Adverse Reactions Grade 1 E", "setting": "E = events, any dose", "result": 24},
      {"measurement": "Skin and subcutaneous tissue disorders: Adverse Reactions Grade 2 E", "setting": "E = events, any dose", "result": 16},
      {"measurement": "Skin and subcutaneous tissue disorders: Adverse Reactions Grade 3 E", "setting": "E = events, any dose", "result": 3},
      {"measurement": "Vascular disorders: Adverse Events Grade 1 E", "setting": "E = events, any dose", "result": 2},
      {"measurement": "Vascular disorders: Adverse Events Grade 2 E", "setting": "E = events, any dose", "result": 0},
      {"measurement": "Vascular disorders: Adverse Events Grade3 E", "setting": "E = events, any dose", "result": 0},
      {"measurement": "Vascular disorders: Adverse Reactions Grade 1 E", "setting": "E = events, any dose", "result": 0},
      {"measurement": "Vascular disorders: Adverse Reactions Grade 2 E", "setting": "E = events, any dose", "result": 0},
      {"measurement": "Vascular disorders: Adverse Reactions Grade 3 E", "setting": "E = events, any dose", "result": 0},
      {"measurement": "Blood and lymphatic system disorders: Adverse Events Grade 1 N", "setting": "N = patients, any dose", "result": 4},
      {"measurement": "Blood and lymphatic system disorders: Adverse Events Grade 2 N", "setting": "N = patients, any dose", "result": 1}
    ]}
  ]
}
